From patent US10981888B2, “Preparation method for tricyclic compounds” (BAYER CROPSCIENCE AKTIENGESELLSCHAFT, priority 2016, dated 2021)

Experiment: determination of log P values by HPLC on a reversed-phase column (C18), EEC Directive 79/831 Annex V.A8
Assay type: physicochemical
Conditions: not given
Description: ^a) Note regarding the determination of the log P values and mass detection: The determination of the given log P values was carried out in accordance with EEC Directive 79/831 Annex V.A8 by HPLC (High Performance Liquid Chromatography) on a reversed-phase column (C18). […] Mass detection is via an Agilent MSD system. […] Mass detection is via an Agilent MSD system. The mass stated is the peak of the molecular ion+hydrogen [M+H]^+ (molecular ion=sum of the masses of the most abundant natural isotopes of which the molecule consists). ^c) GC/MS (gas chromatography/mass spectrometry) on dimethylsilicone phase. 10 m DB-1, ID=0.18 mm, film thickness=0.4 μm; injector: 250° C., carrier gas flow rate: […] helium; detector: MSD: 280° C., FID: 320° C.; oven temperature: 50° C. (1 minute), 50° C.-320° C. ([…], 40° C./min), 320° C. (6.75 minutes); Kovacs Indices calibrated with alkane mixture.
CC1(C)OB(c2cnc(Cl)c(C(=O)NC3CC3)c2)OC1(C)C [2-chloro-N-cyclopropyl-5-(4,4,5,5-tetramethyl-1,3,2-dioxaborolan-2-yl)nicotinamide] showed a chromatographic logP of 0.9.

Same assay, conditions: reversed-phase C18 HPLC column (Zorbax Eclipse Plus C18); HPLC-MS method a): Zorbax Eclipse Plus C18; acetonitrile (0.1% formic acid) / water (0.09% formic acid), gradient 10% to 95% acetonitrile, 55° C.; read-out: log P
FC(F)(F)C(F)(c1cc(Cl)c(-n2cccn2)c(Cl)c1)C(F)(F)F [1-[2,6-dichloro-4-(1,1,1,2,3,3,3-heptafluoropropan-2-yl)phenyl]-1H-pyrazole] showed a chromatographic logP of 4.22. FC(F)(F)C(F)(c1cc(Cl)c(-n2cc(I)cn2)c(Cl)c1)C(F)(F)F [1-[2,6-dichloro-4-(1,1,1,2,3,3,3-heptafluoropropan-2-yl)phenyl]-4-iodo-1H-pyrazole] gave a chromatographic logP of 5.17. FC(F)(F)c1cc(C(F)(C(F)(F)F)C(F)(F)F)cc(Br)c1-n1cccn1 [1-[2-bromo-4-(1,1,1,2,3,3,3-heptafluoropropan-2-yl)-6-(trifluoromethyl)phenyl]-1H-pyrazole] gave a chromatographic logP of 4.42. FC(F)(F)c1cc(C(F)(C(F)(F)F)C(F)(F)F)cc(Br)c1-n1cc(I)cn1 [1-[2-bromo-4-(1,1,1,2,3,3,3-heptafluoropropan-2-yl)-6-(trifluoromethyl)phenyl]-4-iodo-1H-pyrazole] gave a chromatographic logP of 5.22. With FC(F)(F)c1cc(C(F)(C(F)(F)F)C(F)(F)F)cc(Cl)c1-n1cccn1 [1-[2-chloro-4-(1,1,1,2,3,3,3-heptafluoropropan-2-yl)-6-(trifluoromethyl)phenyl]-1H-pyrazole] the chromatographic logP was 4.38. Compound FC(F)(F)c1cc(C(F)(C(F)(F)F)C(F)(F)F)cc(Cl)c1-n1cc(I)cn1 [1-[2-chloro-4-(1,1,1,2,3,3,3-heptafluoropropan-2-yl)-6-(trifluoromethyl)phenyl]-4-iodo-1H-pyrazole] has a chromatographic logP of 5.19. For FC(F)Oc1cc(C(F)(C(F)(F)F)C(F)(F)F)cc(Cl)c1-n1cccn1 [1-[2-chloro-6-(difluoromethoxy)-4-(1,1,1,2,3,3,3-heptafluoropropan-2-yl)phenyl]-1H-pyrazole], the chromatographic logP was 4.04. Compound FC(F)Oc1cc(C(F)(C(F)(F)F)C(F)(F)F)cc(Cl)c1-n1cc(I)cn1 [1-[2-chloro-6-(difluoromethoxy)-4-(1,1,1,2,3,3,3-heptafluoropropan-2-yl)phenyl]-4-iodo-1H-pyrazole] has a chromatographic logP of 4.82. Compound Cc1cc(C(F)(C(F)(F)F)C(F)(F)F)cc(C)c1-n1cccn1 [1-[4-(1,1,1,2,3,3,3-heptafluoropropan-2-yl)-2,6-dimethylphenyl]-1H-pyrazole] has a chromatographic logP of 4.3. Cc1cc(C(F)(C(F)(F)F)C(F)(F)F)cc(C)c1-n1cc(I)cn1 [1-[4-(1,1,1,2,3,3,3-heptafluoropropan-2-yl)-2,6-dimethylphenyl]-4-iodo-1H-pyrazole] showed a chromatographic logP of 5.2. Compound Cc1cc(C(F)(C(F)(F)F)C(F)(F)F)cc(C(F)(F)F)c1-n1cccn1 [1-[4-(1,1,1,2,3,3,3-heptafluoropropan-2-yl)-2-methyl-6-(trifluoromethyl)phenyl]-1H-pyrazole] has a chromatographic logP of 4.4. CN(C(=O)c1cc(-c2cnn(-c3c(Cl)cc(C(F)(C(F)(F)F)C(F)(F)F)cc3OC(F)(F)F)c2)cnc1Cl)C1CC1 [2-Chloro-5-{1-[2-chloro-4-(1,1,1,2,3,3,3-heptafluoropropan-2-yl)-6-(trifluoromethoxy)phenyl]-1H-pyrazol-4-yl}-N-cyclopropyl-N-methylnicotinamide] gave a chromatographic logP of 4.56. Work on CN(C(=O)c1cc(-c2cnn(-c3c(Cl)cc(C(F)(C(F)(F)F)C(F)(F)F)cc3C(F)(F)F)c2)cnc1Cl)C1CC1 [2-Chloro-5-{1-[2-chloro-4-(1,1,1,2,3,3,3-heptafluoropropan-2-yl)-6-(trifluoromethyl)phenyl]-1H-pyrazol-4-yl}-N-cyclopropyl-N-methylnicotinamide] yielded a chromatographic logP of 4.46. For O=C(NC1CC1)c1cc(-c2cnn(-c3c(Cl)cc(C(F)(C(F)(F)F)C(F)(F)F)cc3C(F)(F)F)c2)cnc1Cl [2-Chloro-5-{1-[2-chloro-4-(1,1,1,2,3,3,3-heptafluoropropan-2-yl)-6-(trifluoromethyl)phenyl]-1H-pyrazol-4-yl}-N-cyclopropylnicotinamide], the chromatographic logP was 4. Work on N#CC1(NC(=O)c2cc(-c3cnn(-c4c(Cl)cc(C(F)(C(F)(F)F)C(F)(F)F)cc4Cl)c3)cnc2Cl)CC1 [2-Chloro-N-(1-cyanocyclopropyl)-5-{1-[2,6-dichloro-4-(1,1,1,2,3,3,3-heptafluoropropan-2-yl)phenyl]-1H-pyrazol-4-yl}nicotinamide] yielded a chromatographic logP of 3.81. Cc1cc(C(F)(C(F)(F)F)C(F)(F)F)cc(C)c1-n1cc(-c2cnc(Cl)c(C(=O)NC3(C#N)CC3)c2)cn1 [2-Chloro-N-(1-cyanocyclopropyl)-5-{1-[4-(1,1,1,2,3,3,3-heptafluoropropan-2-yl)-2,6-dimethylphenyl]-1H-pyrazol-4-yl}nicotinamide] showed a chromatographic logP of 3.87. Compound CN(C(=O)c1cc(-c2cnn(-c3c(Cl)cc(C(F)(C(F)(F)F)C(F)(F)F)cc3Cl)c2)cnc1Cl)C1CC1 [2-Chloro-N-cyclopropyl-5-{1-[2,6-dichloro-4-(1,1,1,2,3,3,3-heptafluoropropan-2-yl)phenyl]-1H-pyrazol-4-yl}-N-methylnicotinamide] has a chromatographic logP of 4.36. O=C(NC1CC1)c1cc(-c2cnn(-c3c(Cl)cc(C(F)(C(F)(F)F)C(F)(F)F)cc3OC(F)(F)F)c2)cnc1Cl [2-chloro-5-{1-[2-chloro-4-(1,1,1,2,3,3,3-heptafluoropropan-2-yl)-6-(trifluoromethoxy)phenyl]-1H-pyrazol-4-yl}-N-cyclopropylnicotinamide] gave a chromatographic logP of 4.28. With CN(C(=O)c1cc(-c2cnn(-c3c(Cl)cc(C(F)(C(F)(F)F)C(F)(F)F)cc3Cl)c2)cnc1Cl)C1(C#N)CC1 [2-chloro-N-(1-cyanocyclopropyl)-5-{1-[2,6-dichloro-4-(1,1,1,2,3,3,3-heptafluoropropan-2-yl)phenyl]-1H-pyrazol-4-yl}-N-methylnicotinamide] the chromatographic logP was 4.31. FC(F)(F)C(F)(c1cc(Cl)c(-n2cc(Br)cn2)c(Cl)c1)C(F)(F)F [4-bromo-1-[2,6-dichloro-4-(1,1,1,2,3,3,3-heptafluoropropan-2-yl)phenyl]-1H-pyrazole] showed a chromatographic logP of 5.07. For O=C(NC1CC1)c1cc(-c2cnn(-c3c(Br)cc(C(F)(C(F)(F)F)C(F)(F)F)cc3OC(F)(F)F)c2)cnc1Cl [5-{1-[2-Bromo-4-(1,1,1,2,3,3,3-heptafluoropropan-2-yl)-6-(trifluoromethoxy)phenyl]-1H-pyrazol-4-yl}-2-chloro-N-cyclopropylnicotinamide], the chromatographic logP was 4.25. For CN(C(=O)c1cc(-c2cnn(-c3c(Br)cc(C(F)(C(F)(F)F)C(F)(F)F)cc3C(F)(F)F)c2)cnc1Cl)C1CC1 [5-{1-[2-bromo-4-(1,1,1,2,3,3,3-heptafluoropropan-2-yl)-6-(trifluoromethyl)phenyl]-1H-pyrazol-4-yl}-2-chloro-N-cyclopropyl-N-methylnicotinamide], the chromatographic logP was 4.28.
